Test results from patent publication US20260285874A1, “SALT FORM AND CRYSTAL FORM OF THIENOPYRIMIDINE COMPOUND, AND PREPARATION METHOD THEREFOR AND USE THEREOF” (SHANDONG LUYE PHARMACEUTICAL CO., LTD., priority 2023, published 2026).

What was measured:
[1] = target: T1, human hERG potassium channel (Homo sapiens, UniProt Q12809); experiment: hERG test (QPatch automated patch clamp, CHO cells); type: cell-based
T1 construct: host or cells: CHO
Protocol: • Cell: CHO cells stably expressing a human hERG potassium channel (WuXi AppTec (Shanghai) Co., Ltd.) • Reagents: physiological solution (PH=7.4): 140 mM NaCl, 4 mM KCl, 2 mM CaCl2), 1 mM MgCl2, 5 mM glucose, 10 mM HEPES, osmolarity: about 298 mOsm; external solution (PH=7.4): 80 mM NaCl, 4 mM KCl, 2 mM CaCl2, 1 mM MgCl2, 5 mM glucose, 60 mM NMDG, 10 mM HEPES, osmolarity: about 289 mOsm; and internal solution (PH=7.4): 10 mM NaCl, 10 mM KCl, 110 mM KF, 10 mM HEPES, EGTA: […], osmolarity: about 280 mOsm. • Equipment: QPatch high-throughput automated patch clamp system, Sophion. • Method: CHO cells stably expressing a human hERG potassium channel were digested with TrypLE and resuspended in the physiological solution for later use. The single-cell high-impedance sealing and whole-cell mode formation processes were automatically completed by Qpatch. The cells were clamped at a voltage of −80 mV, then a voltage of −50 mV was applied for 80 ms to subtract (current) leakage, and a voltage of +20 mV was applied for 4800 ms to open the hERG channel. The voltage was then reduced to −50 mV and maintained for 5000 ms. This process was used for data collection and analysis. Finally, the voltage was returned to the clamping voltage (−80 mV, 1000 ms). This process was repeated every 20,000 ms. […]

human GnRHR [2] = target: T2, human GnRHR (Homo sapiens, UniProt P30968); experiment: In vitro binding screening ([125I]-[D-Trp6]-LH-RH displacement, Chem-1 cell membrane); design: host or cells: Chem-1 cells (membrane preparation)
T2 sequence (P30968 1-328): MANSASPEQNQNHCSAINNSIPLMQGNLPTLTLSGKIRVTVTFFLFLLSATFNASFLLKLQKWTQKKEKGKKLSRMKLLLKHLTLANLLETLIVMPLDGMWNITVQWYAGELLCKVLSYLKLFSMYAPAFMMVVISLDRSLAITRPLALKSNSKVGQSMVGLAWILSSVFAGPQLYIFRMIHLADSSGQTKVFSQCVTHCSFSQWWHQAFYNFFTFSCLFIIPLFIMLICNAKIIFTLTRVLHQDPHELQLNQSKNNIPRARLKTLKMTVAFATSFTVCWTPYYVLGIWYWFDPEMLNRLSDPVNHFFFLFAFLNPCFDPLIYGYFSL
Protocol: 1 μM [D-Trp6]-LH-RH was used in the non-specific binding assay. The cell membrane was collected by filtration under vacuum and washed before liquid scintillation. The binding IC50 and IC90 of the compound were calculated using Prism.

[3] = Pituitary tissue distribution in SD rats after intragastric administration; type: in vivo; details: i.g 12 mg/kg; for Plasma concentration: in ng/mL (unit assumed)
Protocol: (§1) • Rats: SD rats, male, 200-250 g • Instruments: water purification instrument, Millipore; electronic balance, METTLER TOLEDO; high-speed benchtop centrifuge, Thermo; water bath thermostatic oscillator, Shanghai Yiheng Technical Co., Ltd.; vortex oscillator, Thermo; LC-MS/MS, AB SCIEX. • Method: Solutions of all compounds were prepared using DMSO and 20% solutol. In the pharmacokinetic experiment, the administration dose for the intravenous group (i.v) was 1 mg/kg, and the administration dose for the intragastric group (i.g) was 12 mg/kg; each group contained 3 rats. Blood was collected from the orbit of the rats before administration (0 h) and at set time points after administration. In the tissue distribution experimental group, the rats were intragastrically dosed at 12 mg/kg. […] in a heparinized EP tube and centrifuged at 13,500 rpm for 10 min to isolate the plasma. The pituitary was homogenized with water in a certain ratio. The plasma and pituitary homogenates were pre-treated and then analyzed by LC-MS/MS to determine the concentrations of the test substances in the plasma and the pituitary. The plasma drug concentration data were processed in a non-compartmental model using WinNonlin™ Version 6.3 (Pharsight, Mountain View, CA) pharmacokinetic software.

Caco-2 cells = experiment: Permeability and transporter substrate evaluation in Caco-2 monolayer; type: in vitro ADME
Protocol: • Cell: Caco-2 cells • Instruments: water purification instrument, ELGA Lab Wate; biosafety cabinet, NUAIRE; thermostatic CO2 incubator, Thermo; microplate reader, PerkinElmer; LC-MS/MS, AB SCIEX. • Method: A Caco-2 monolayer cell model was used to determine the two-way permeability of the test substance and evaluate whether the test substance was transported via efflux by a transporter. In the experiment, Caco-2 cells were seeded into a 96-well cell culture plate and cultured for 28 consecutive days before a transport assay. The test substance was administered on two sides. After 120 min of incubation, samples of apical end A, basal end B, and the cell lysate were collected, and the content of the test substance in the samples was quantitatively determined using a liquid chromatography-tandem mass spectrometry (LC/MS/MS) method. The apparent permeability coefficients (Papp) in the direction from the apical end to the basal end (A-B) and in the direction from the basal end to the apical end (B-A) and the efflux ratio were calculated based on the concentration of the test substance.

human GnRHR [4] = target: T2, human GnRHR; experiment: In vitro antagonistic activity screening (FLIPR calcium fluorescence, leuprolide acetate stimulation); type: cell-based
Protocol: • Cell: HEK293 cells stably expressing human GnRHR (WuXi AppTec (Shanghai) Co., Ltd.) • Equipment: 384-well plate, Greiner; Vi-cell XR Cell Viability Analyzer, Beckman Coulter; incubator, Thermo. • Method: HEK293 cells stably expressing human GnRHR were seeded into a 384-well plate at a density of 20,000 cells/well. Fluo-4 Direct™ No-wash Loading Buffer (Invitrogen) was added to each well the next day, and then the plate was put back into an incubator, incubated at 37° C. for 50 min, and then incubated at room temperature for 10 min. […] Fluorescence was measured using a FLIPR Tetra high-throughput real-time fluorescence assay and analysis system. Then 10 μL of Leuprolide acetate was added, and fluorescence was measured. The IC50 and IC90 of the compound were calculated using Prism.

[5] = In vivo pharmacokinetics in SD rats; details: intragastric administration group
Protocol: as §1

T1 sequence (Q12809 whole entry): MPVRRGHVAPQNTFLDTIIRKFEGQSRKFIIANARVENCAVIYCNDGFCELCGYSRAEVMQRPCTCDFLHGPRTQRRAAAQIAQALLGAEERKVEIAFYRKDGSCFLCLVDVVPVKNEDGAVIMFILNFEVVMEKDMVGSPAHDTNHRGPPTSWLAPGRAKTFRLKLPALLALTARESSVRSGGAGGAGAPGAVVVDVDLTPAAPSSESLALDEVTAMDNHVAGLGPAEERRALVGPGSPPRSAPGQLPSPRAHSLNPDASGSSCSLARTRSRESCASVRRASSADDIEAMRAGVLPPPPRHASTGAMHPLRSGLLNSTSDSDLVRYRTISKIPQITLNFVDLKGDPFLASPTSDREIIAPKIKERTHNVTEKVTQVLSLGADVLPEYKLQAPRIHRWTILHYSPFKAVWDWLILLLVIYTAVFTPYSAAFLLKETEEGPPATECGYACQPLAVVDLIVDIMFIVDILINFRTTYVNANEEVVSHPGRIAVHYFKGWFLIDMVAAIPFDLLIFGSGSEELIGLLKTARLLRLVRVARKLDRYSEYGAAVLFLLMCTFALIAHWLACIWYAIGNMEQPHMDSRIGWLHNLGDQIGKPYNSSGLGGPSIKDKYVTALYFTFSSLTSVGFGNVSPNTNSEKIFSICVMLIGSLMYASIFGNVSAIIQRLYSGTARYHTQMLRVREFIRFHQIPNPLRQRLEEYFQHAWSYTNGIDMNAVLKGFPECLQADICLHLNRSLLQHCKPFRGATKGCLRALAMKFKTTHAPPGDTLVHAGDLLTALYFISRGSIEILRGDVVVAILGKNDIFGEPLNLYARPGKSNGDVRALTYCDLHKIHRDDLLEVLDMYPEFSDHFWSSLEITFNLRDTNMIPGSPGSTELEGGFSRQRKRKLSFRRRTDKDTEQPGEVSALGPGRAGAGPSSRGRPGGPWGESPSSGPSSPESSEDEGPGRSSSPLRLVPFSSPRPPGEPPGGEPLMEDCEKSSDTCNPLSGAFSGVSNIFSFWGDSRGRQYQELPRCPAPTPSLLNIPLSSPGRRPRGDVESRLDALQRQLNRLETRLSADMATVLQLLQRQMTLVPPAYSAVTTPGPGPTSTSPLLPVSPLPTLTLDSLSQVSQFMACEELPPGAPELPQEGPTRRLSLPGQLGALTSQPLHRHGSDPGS

Binding ability to human GnRHR (conclusion) (human GnRHR [2]): significant binding ability | Pituitary concentration ([3]; 1 h): 2250 ± 474 | Plasma concentration ([3]; 1 h): 39.5 ± 14.0 | Pituitary concentration ([3]; 4 h): 1841 ± 636 | Plasma concentration ([3]; 4 h): 22.8 ± 2.5 | Pituitary concentration ([3]; 12 h): 1254 ± 494 | Plasma concentration ([3]; 12 h): 9.70 ± 3.10 | Efflux ratio (conclusion) (Caco-2 cells): relatively low efflux ratio | Inhibitory effect on human GnRHR (conclusion) (human GnRHR [4]): significant inhibitory effect | Absolute bioavailability relative to Relugolix [5]: 3.47 times
Structure (SMILES): CCNC(=O)Nc1ccc(-c2sc3c(c2CN(C)C)c(=O)n(-c2ccc(OC)nn2)c(=O)n3Cc2c(F)cccc2F)cn1 [Formula I]
Inhibitory activity against the human hERG potassium channel (conclusion) [1]: relatively low inhibitory activity
